Measured values as given in US20220324835A1 (Nurix Therapeutics, Inc., priority 2018, published 2022).

What was measured:
primary human B cells = experiment: B cell activation assay (CD69 on anti-IgM stimulated B cells); format: cell-based; conditions: AUC of dose response curve (10 μM to 1 nM) of CD69 MFI normalized to DMSO control
Procedure: Peripheral blood mononuclear cells (PBMC) were obtained either: 1) by using Ficoll-Paque™ (GE Healthcare) for separation of peripheral blood hematopoietic cells from buffy coats of healthy human donors; or 2) directly from LeukoPak donations. Human primary B cells were isolated from the PBMCs utilizing negative selection with commercial kits following the manufacturer's protocol (StemCells Catalog #17954) to yield >95% CD20+ cells assessed by flow cytometry. Primary human B cells were plated at 0.7-1×10^5 per well in a 96-well plate with Cbl-b inhibitors over a dose ranging from 10 μM to 1 nM and incubated at 37° C. 5% CO2, with a final DMSO concentration of <0.5%. Cells were stimulated with anti-IgM for 20 hours at 37° C. 5% CO2. Surface activation markers on mature CD20^+ IgD^+ B cells were monitored by FACS using an anti-CD69 antibody (BD Biosciences).
Cbl-b inhibitors were tested to determine their ability to induce or enhance surface expression of cell surface markers on B cells (e.g., CD69), which is indicative of B cell activation.
Readouts were reported as area under curve (AUC) of the dose response curve of CD69 mean fluorescence intensity (MFI) normalized to the DMSO control. Baseline for this study was the measurement obtained from primary human B cells treated with DMSO in the presence of 2.5 μg/mL of anti-IgM-F(ab′)2. […] Compounds were ranked into bins according to their readouts as follows: A indicates ≤0.5, B indicates 0.5-1.00, C indicates 1.01-1.50, and D indicates ≥1.51.

Cbl-b (residues 36-427) = Cbl-b (residues 36-427) (Homo sapiens, UniProt Q13191); experiment: Cbl-b binding assay (SPR, Biacore T200); conditions: 20° C., 1:1 binding model
In short: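 NeutrAvidin capture chip, 20° C; 50 s injections at 50 μl/min, 90-180 s dissociation; 0.3 M NaCl regeneration. Asterisked column: 50 mM NaCl buffer and 30 nM Src kinase in place of 100 mM NaCl and 60 nM Src kinase. 1:1 fit.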

T-cell [1] = experiment: IL-2 secretion from T-cells stimulated with anti-CD3 antibody alone (Biological Example 2); format: cell-based; conditions: primary human total T-cells, read-out: IL-2 secretion, Anti-CD3 stimulation, fold change over baseline; for fold induction at 1 µM: 1 μM compound; for fold induction at 8 µM: 8 μM compound
T-cell [2] = experiment: CD25 cell surface staining on T-cells co-stimulated with anti-CD3 and anti-CD28 antibody (Biological Example 2); format: cell-based, human; conditions: Homo sapiens, T-cell, primary human total T-cells, baseline = anti-CD3/anti-CD28 stimulated cells without inhibitor, read-out: CD25 staining, Anti-CD3/Anti-CD28 stimulation, fold change over baseline; for fold induction at 0.3 µM: 0.3 μM compound; for fold induction at 1 µM: 1 μM compound; for fold induction at 4 µM: 4 μM compound
In short: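 Values are fold-change over baseline: readings (IL-2 release, CD25 staining) from inhibitor-treated T-cells divided against untreated cells […]. No detailed procedure stated.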

[3] = test system: human T-cells with allogenic immature dendritic cells; experiment: Allogenic mixed lymphocyte reaction (MLR), T-cell proliferation; format: cell-based; conditions: 120 h, 5 days, baseline T-cells without Cbl-b inhibitor, read-out: Proliferation, fold change over baseline
Procedure: Cbl-b inhibitor effects on primary human T-cells were also evaluated in the context of an allogenic mixed lymphocyte reaction (MLR). Allogenic immature dendritic cells were generated under the following conditions. Peripheral blood mononuclear cells (PBMC) were obtained either: 1) by using Ficoll-Paque™ (GE Healthcare) for separation of peripheral blood hematopoietic cells from huffy coats of healthy human donors; or 2) directly from LeukoPak donations. […] Monocytes were cultured with 30 ng/mL of recombinant human GM-CSF and 20 ng/mL of recombinant human IL-4 for seven days to generate immature dendritic cells. Monocytes and T-cells were either isolated fresh from peripheral blood or thawed from frozen stocks. Human T-cells were isolated, labeled with CFSE and incubated with inhibitors as described above. […] Proliferation of the T-cells was evaluated by flow cytometry.
Readouts for the allogenic mixed lymphocyte reaction were reported as fold change over baseline. Baseline for this study was the measurement obtained from total human T-cells stimulated with allogenic immature dendritic cells, wherein the T-cells were not incubated with a Cbl-b inhibitor (Table 5). Increases in proliferation greater than 2-fold over baseline were considered a positive response (Table 5).

Chain of Cbl-b (residues 36-427) (Q13191 36-427): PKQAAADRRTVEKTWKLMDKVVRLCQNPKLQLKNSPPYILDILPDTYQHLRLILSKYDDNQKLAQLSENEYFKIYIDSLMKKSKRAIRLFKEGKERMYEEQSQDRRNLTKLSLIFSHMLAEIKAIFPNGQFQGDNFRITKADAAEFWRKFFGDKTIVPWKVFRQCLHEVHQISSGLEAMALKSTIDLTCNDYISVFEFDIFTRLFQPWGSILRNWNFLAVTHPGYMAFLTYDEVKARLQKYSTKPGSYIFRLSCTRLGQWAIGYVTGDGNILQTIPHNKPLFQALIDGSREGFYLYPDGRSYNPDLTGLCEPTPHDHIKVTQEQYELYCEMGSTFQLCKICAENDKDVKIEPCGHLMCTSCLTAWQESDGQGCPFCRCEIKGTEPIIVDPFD

Row | Structure (SMILES) | CD69 MFI AUC (primary human B cells) | Kd (Cbl-b (residues 36-427)) | fold induction at 1 µM (T-cell [1]) | fold induction at 8 µM (T-cell [1]) | fold induction at 0.3 µM (T-cell [2]) | fold induction at 1 µM (T-cell [2]) | fold induction at 4 µM (T-cell [2]) | fold induction at 3 µM [3] | fold induction at 10 µM [3]
1 | C[C@H](Cc1nncn1C)c1cccc(N2Cc3c(cc(CN4CC(O)C4)cc3C(F)(F)F)C2=O)c1 [Compound 393, (R)-6-((3-hydroxyazetidin-1-yl)methyl)-2-(3-(1-(4-methyl-4H-1,2,4-triazol-3-yl)propan-2-yl)phenyl)-4-(trifluoromethyl)isoindolin-1-one] | B (B indicates 0.5-1.00) | < 100 nM | > 0.201 | > 0.201 | 1.01 to 1.3 | 1.31 to 1.5 | 1.31 to 1.5 | < 2 | 2.01 to 3
2 | Cn1cnnc1C(F)(F)[C@](C)(F)c1cccc(N2Cc3c(cc(C(=O)N4CC[C@H](O)C4)cc3C(F)(F)F)C2=O)c1 [Compound 438, 6-((S)-3-hydroxypyrrolidine-1-carbonyl)-2-(3-((R)-1,1,2-trifluoro-1-(4-methyl-4H-1,2,4-triazol-3-yl)propan-2-yl)phenyl)-4-(trifluoromethyl)isoindolin-1-one] | A (A indicates ≤0.5) | 100 to 300 nM | 0.101 to 0.15 | > 0.201 | 1.01 to 1.3 | 1.01 to 1.3 | 1.31 to 1.5 | < 2 | < 2
3 | COC1CN(Cc2cc3c(c(C(F)(F)F)c2)CN(c2cccc([C@@](C)(F)C(F)(F)c4nncn4C)c2)C3=O)C1 [Compound 452, (R)-6-((3-methoxyazetidin-1-yl)methyl)-2-(3-(1,1,2-trifluoro-1-(4-methyl-4H-1,2,4-triazol-3-yl)propan-2-yl)phenyl)-4-(trifluoromethyl)isoindolin-1-one] | D (D indicates ≥1.51) | < 100 nM | 0.151 to 0.2 | > 0.201 | 1.01 to 1.3 | 1.31 to 1.5 | 1.31 to 1.5 | < 2 | < 2
4 | C[C@H](c1cc2c(c(C(F)(F)F)c1)CN(c1cccc(C3(Cc4nncn4C)COC3)c1)C2=O)N1CC[C@H](F)C1 [Compound 413, 6-((R)-1-((S)-3-fluoropyrrolidin-1-yl)ethyl)-2-(3-(3-((4-methyl-4H-1,2,4-triazol-3-yl)methyl)oxetan-3-yl)phenyl)-4-(trifluoromethyl)isoindolin-1-one] | C (C indicates 1.01-1.50) |  | > 0.201 | > 0.201 | 1.31 to 1.5 | 1.51 to 1.75 | 1.31 to 1.5 | 2.01 to 3 | > 3.01
5 | Cn1cnnc1CC1(c2cccc(NC(=O)c3cc(CN4CCC5(CC5)C4)cc(C4CC4)n3)c2)COC1 [Compound 519, 4-((5-azaspiro[2.4]heptan-5-yl)methyl)-6-cyclopropyl-N-(3-(3-((4-methyl-4H-1,2,4-triazol-3-yl)methyl)oxetan-3-yl)phenyl)picolinamide] | D (D indicates ≥1.51) |  | > 0.201 |  | 1.31 to 1.5 | 1.31 to 1.5 |  | > 3.01 | > 3.01
6 | Cn1cnnc1C(F)(F)[C@](C)(F)c1cccc(N2Cc3c(cc(CN4CC[C@@H](C#N)C4)cc3C(F)(F)F)C2=O)c1 [Compound 455, (R)-1-((3-oxo-2-(3-((R)-1,1,2-trifluoro-1-(4-methyl-4H-1,2,4-triazol-3-yl)propan-2-yl)phenyl)-7-(trifluoromethyl)isoindolin-5-yl)methyl)pyrrolidine-3-carbonitrile] | C (C indicates 1.01-1.50) |  | 0.151 to 0.2 | > 0.201 | 1.01 to 1.3 | 1.31 to 1.5 | 1.31 to 1.5 | < 2 | < 2
7 | Cn1cnnc1CC1(c2cccc(N3Cc4c(cc(CN5CC(F)C5)cc4C(F)(F)F)C3=O)c2)COC1 [Compound 415, 6-((3-fluoroazetidin-1-yl)methyl)-2-(3-(3-((4-methyl-4H-1,2,4-triazol-3-yl)methyl)oxetan-3-yl)phenyl)-4-(trifluoromethyl)isoindolin-1-one] | C (C indicates 1.01-1.50) |  | 0.151 to 0.2 | > 0.201 | 1.31 to 1.5 | 1.31 to 1.5 | 1.51 to 1.75 | 2.01 to 3 | > 3.01
8 | Cn1cnnc1CC1(c2cccc(N3Cc4c(cc(CN5CC[C@H](C#N)C5)cc4C(F)(F)F)C3=O)c2)COC1 [Compound 422, (S)-1-((2-(3-(3-((4-methyl-4H-1,2,4-triazol-3-yl)methyl)oxetan-3-yl)phenyl)-3-oxo-7-(trifluoromethyl)isoindolin-5-yl)methyl)pyrrolidine-3-carbonitrile] | C (C indicates 1.01-1.50) |  | > 0.201 | > 0.201 | 1.31 to 1.5 | 1.31 to 1.5 | 1.31 to 1.5 | < 2 | 2.01 to 3
9 | Cn1cnnc1C(F)(F)[C@](C)(F)c1cccc(N2Cc3c(cc(N4CCNCC4)cc3C(F)(F)F)C2=O)c1 [Compound 442, (R)-6-(Piperazin-1-yl)-2-(3-(1,1,2-trifluoro-1-(4-methyl-4H-1,2,4-triazol-3-yl)propan-2-yl)phenyl)-4-(trifluoromethyl)isoindolin-1-one] | B (B indicates 0.5-1.00) |  | > 0.201 | 0.051 to 0.1 | 1.31 to 1.5 | 1.51 to 1.75 | 1.51 to 1.75 | < 2 | < 2
10 | C[C@@H](c1cc2c(c(C(F)(F)F)c1)CN(c1cccc(C3(Cc4nncn4C)COC3)c1)C2=O)N1CC[C@H](F)C1 [Compound 412, 6-((S)-1-((S)-3-fluoropyrrolidin-1-yl)ethyl)-2-(3-(3-((4-methyl-4H-1,2,4-triazol-3-yl)methyl)oxetan-3-yl)phenyl)-4-(trifluoromethyl)isoindolin-1-one] | D (D indicates ≥1.51) |  | > 0.201 | > 0.201 | 1.31 to 1.5 | 1.51 to 1.75 | 1.51 to 1.75 | > 3.01 | > 3.01
11 | Cn1cnnc1CC1(c2cccc(N3Cc4c(cc(CN5CCC6(CC6)C5)cc4C(F)(F)F)C3=O)c2)COC1 [Compound 520, 6-((5-azaspiro[2.4]heptan-5-yl)methyl)-2-(3-(3-((4-methyl-4H-1,2,4-triazol-3-yl)methyl)oxetan-3-yl)phenyl)-4-(trifluoromethyl)isoindolin-1-one] | D (D indicates ≥1.51) |  | > 0.201 |  | 1.31 to 1.5 | 1.31 to 1.5 |  | > 3.01 | > 3.01
